Key:
[1] = biological target: T1, AMPK-s2 (α subunit- D157A) (Rattus norvegicus, UniProt P54645+P80385, D168A); assay: SPR analysis, AMPK mutant s2; assay type: binding
T1 construct: His (N); made in house

[2] = system: MAPK; assay: Cellular thermal shift assay (CETSA) in PC12 cells, MAPK; assay type: binding; conditions: 10 μM GENI 2 h, 60 °C to 80 °C
Procedure: In a 60 mm dish containing 5 mL of DMEM, 2 × 10^6 cells were added and incubated for 24 h. In each plate, 10 μM GENI was added and incubated for 2 h. Cells were harvested and heated at a temperature ranging from 60 °C to 80 °C for PC12 cell samples. We obtained a certain amount of cerebral cortex and hippocampus samples, which were added with PBS and ground. After centrifugation, the supernatant was used as a sample, and we measured the protein concentration with a BCA kit (CoWin Biotech Co., Ltd., Taizhou, Jiangsu, China). The protein of the cerebral cortex or hippocampus was incubated with 10 μM GENI at 37 °C for 2 h and heated from 65 °C to 100 °C for the cerebral cortex sample but 43 °C to 67 °C and 65 °C to 100 °C for the hippocampus sample. Equal volumes of supernatant heated at each temperature point for the control and treatment groups were used for Western blot analysis with the antibody for specific proteins.

[3] = system: PC12 cells; assay: RT-PCR analysis of gene expression in PC12 cells; assay type: cell-based, Rat; conditions: PC12 cells under H2O2 induction
Procedure: RT-PCR analysis was performed as described in the material and methods section in Supplementary Information.
Supplementary information […]
1.1. Real-time polymerase chain reaction (RT-PCR) analysis
PC12 cells (2 × 106) were seeded in 60 mm dishes and treated with RES (10 μM) or GENI (3 or 10μM) for 24h. Total RNA was extracted with TRIzol Reagent (Beijing Cowin Biotech Company, Beijing, China). RNA content was determined using an Eppendorf Biophotometer Plus (Eppendorf Company, Hamburg, Germany). Transcription was performed using 5 μg of total RNA, Oligo (dT)20 primer and reverse transcriptase (Beijing Cowin Biotech Company, Beijing, China). Transcript levels were quantified by real-time PCR (AB SCIEX, Massachusetts, USA) and SYBR Premix EX Taq™ (Takara, Otsu, Japan). Primers (Sangon Biotech Co. Ltd., Shanghai, China) used in this study are given in Supplementary Table S3. The thermocycling parameters for PC12 cells were as follows: SOD1 and SOD2: 95 ℃ for 2 min, then 40 cycles, 54 ℃ for 35 seconds; Bcl-x1 and Nrf2: 95 ℃ for 2 min, then 40 cycles, 95 ℃ for 15 seconds, 60 ℃ […]
for 15 seconds, 68 ℃ for 20 seconds. All results were normalized to GAPDH RNA levels, and relative mRNA transcript levels were calculated using the ΔΔCt formula. […]
For NO content evaluation, firstly, the NO assay kit was removed, and Griess Reagents I and II were warmed to room temperature. The standard substance was diluted with cell culture solution to 0, 1, 2, 5, 10, 20, 40, 60 and 100 μM. Secondly, 50 μL of standard reagent and the diluted sample were added into a 96-well plate. […]
For IL-6 content evaluation, we prepared samples, standards and biotinylated antibody working […]
15.625 and 0 pg/mL for use, and blank holes were set. The 100 μL sample or standard substance of different concentrations was added to the corresponding hole, and about 50 μL of biotinylated antibody working liquid was added to the sample and standard substance hole. The reaction hole was sealed with sealing plate adhesive paper. The working liquid of the enzyme conjugate was prepared 30 min in advance by incubating at room temperature with a 300 rpm micro-oscillator for 120 min. The sample was placed at room temperature away from light, and the board was washed five times after incubation. In addition to the blank holes, 100 μL of enzyme conjugate working liquid was added to each hole, and the reaction holes were sealed with plate adhesive paper. The board was incubated at room temperature with a 300 rpm micro-oscillator for 60 min and then washed five times. […] About 100 μL of termination solution was added to each hole, and we measured the OD450 value immediately after mixing with a microplate reader (BioTek, California, USA).

[4] = system: AMPK/mTOR/ULK1/LC3B signaling pathway; assay: Western blot of autophagy signaling pathway proteins; assay type: cell-based; conditions: after giving GENI; PC12 cells and mouse hippocampus and cerebral cortex (Extended Data Figure S3a–f)
Procedure: Western blot analysis for p-AMPK α, AMPK α, p-mTOR, mTOR, p-ULK1, ULK1, and LC3-I/II was conducted according to the information described in the materials and methods section of Supplementary Information.
1.3. Western blot analysis.
For PC12 cell samples, we seeded 2 × 10^6 PC12 cells in each 60 mm dish containing 5 mL of DMEM and incubated the dish for 24 h. For the dose-dependent experiment of GENI, GENI (1, 3 and 10 μM) was added to the dishes and incubated for a period of time (2 hours for p-AMPK α, AMPK α, 48 hours for p-mTOR, mTOR and p-ULK1, ULK1; 8 hours for LC3-I/II). Cells were then collected, lysed using RAPI lysis buffer and centrifuged. The supernatants of each group were used as protein samples. […]
The supernatants of each group were used as protein samples. For animal samples, an appropriate amount of tissue, such as cerebral cortex and hippocampus (50–100 mg), of each group was weighed, and we added lysis buffer with 1:9 ratios. After grinding and centrifuging, the supernatants of each group were used as protein samples. The protein concentration was measured with a BCA assay kit (Beijing Cowin Biotech Company, Beijing, China). Sodium dodecyl sulphate polyacrylamide gel electrophoresis (SDS-PAGE) was used to separate proteins (15 μg), which were transferred to PVDF membranes. The membrane was incubated with primary and secondary antibodies (Supplementary Table S5 for details). Antigens were visualised using a high-sensitivity chemiluminescence detection kit (Beijing Cowin Biotech Company, Beijing, China). Bands were quantitatively measured using ImageJ software (National Institutes of Health, Bethesda, MD, USA).

T1 sequence (P54645 13-559 D168A limits assumed): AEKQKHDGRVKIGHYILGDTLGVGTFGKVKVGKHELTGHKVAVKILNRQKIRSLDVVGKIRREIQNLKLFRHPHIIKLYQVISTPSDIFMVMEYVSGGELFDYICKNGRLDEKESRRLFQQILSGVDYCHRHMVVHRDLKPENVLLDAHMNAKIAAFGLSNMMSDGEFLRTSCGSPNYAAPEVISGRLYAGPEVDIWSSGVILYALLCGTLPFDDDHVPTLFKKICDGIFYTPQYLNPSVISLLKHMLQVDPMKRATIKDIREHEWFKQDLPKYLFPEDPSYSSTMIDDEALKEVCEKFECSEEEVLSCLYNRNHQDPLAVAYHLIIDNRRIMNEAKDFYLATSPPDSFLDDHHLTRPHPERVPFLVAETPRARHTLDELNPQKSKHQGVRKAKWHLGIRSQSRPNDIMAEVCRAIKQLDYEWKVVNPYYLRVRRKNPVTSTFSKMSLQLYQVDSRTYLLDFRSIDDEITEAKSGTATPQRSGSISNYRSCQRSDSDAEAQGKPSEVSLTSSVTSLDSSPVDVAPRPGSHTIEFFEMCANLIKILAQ
T1 sequence (P80386 whole entry partner): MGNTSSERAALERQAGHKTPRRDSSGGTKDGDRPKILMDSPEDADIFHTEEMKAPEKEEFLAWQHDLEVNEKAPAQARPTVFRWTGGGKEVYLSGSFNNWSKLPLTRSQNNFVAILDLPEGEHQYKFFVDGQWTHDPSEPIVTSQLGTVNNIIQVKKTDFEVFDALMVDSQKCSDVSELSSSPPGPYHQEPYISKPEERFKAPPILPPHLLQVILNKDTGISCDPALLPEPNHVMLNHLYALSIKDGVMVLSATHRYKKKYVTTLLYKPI
T1 sequence (P80385 whole entry): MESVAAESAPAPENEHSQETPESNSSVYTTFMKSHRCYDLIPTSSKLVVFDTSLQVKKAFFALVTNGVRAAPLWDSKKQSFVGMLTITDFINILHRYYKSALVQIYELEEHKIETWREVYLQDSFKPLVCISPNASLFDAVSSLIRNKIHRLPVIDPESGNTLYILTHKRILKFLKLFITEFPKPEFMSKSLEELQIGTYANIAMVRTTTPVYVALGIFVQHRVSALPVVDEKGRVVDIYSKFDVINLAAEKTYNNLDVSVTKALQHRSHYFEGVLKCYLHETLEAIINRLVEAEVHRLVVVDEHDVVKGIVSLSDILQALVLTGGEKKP

SMILES: CC(C)CCOC(=O)C1=CO[C@@H](O[C@@H]2O[C@H](CO)[C@@H](O)[C@H](O)[C@H]2O)C2C(CO)=CCC12 (some centres unmarked) [GENI, Geniposidic 4-isoamyl ester]
- dose-dependent response in SPR ([1]; D157 replaced with A157): No significant dose-dependent response
- kon ([1]; SPR, association rate, read-out: Ka): 9120 M⁻¹ s⁻¹
- thermal stability of MAPK (CETSA) [2]: not obvious
- abundance of Bcl-x1 mRNA [3]: significantly increased
- abundance of Nrf2 mRNA [3]: significantly increased
- gene expression of SOD1 ([3]; GENI 3 or 10 μM 24 h): increased
- gene expression of SOD2 ([3]; GENI 3 or 10 μM 24 h): increased
- LC3B at protein level [4]: increase
- phosphorylate-AMPK at protein level [4]: increase
- phosphorylate-ULK1 at protein level [4]: increase
- phosphorylate-mTOR at protein level [4]: reduction

Reference: PMC11763059, “GENI as an AMPK Activator Binds α and γ Subunits and Improves the Memory Dysfunction of Alzheimer’s Disease Mouse Models via Autophagy and Neuroprotection” (Antioxidants, 2025)
